Laboratory results reported in ChEMBL document CHEMBL4177527, “Synthesis and biological evaluation of a D-ring-contracted analogue of lamellarin D” (Bioorg Med Chem, 2017).
Activity calls are given as the source filed them. The rule behind the calls is not given here.

Key:
[1] = test system: CCRF-CEM; assay: Cytotoxicity against human CCRF-CEM cells assessed as reduction in cell viability after 72 hrs by resazurin reduction assay; format: functional, cell-based
[2] = test system: CCRF-CEM; assay: Cell cycle arrest in human CCRF-CEM cells assessed as accumulation at G2/M phase at 0.055 to 0.44 uM after 6 to 72 hrs by propidium iodide staining-based flow cytometry; format: functional
[3] = test system: ADR5000 cell line; assay: Cytotoxicity against human CEM/ADR5000 cells assessed as reduction in cell viability after 72 hrs by resazurin reduction assay; format: functional, cell-based; details: ADR5000, 72 h
[4] = test system: CCRF-CEM; assay: Induction of apoptosis in human CCRF-CEM cells at 0.055 to 0.44 uM after 24 to 72 hrs by propidium iodide staining-based flow cytometry; format: functional, cell-based
[5] = Resistance index, ratio of IC50 for human CEM/ADR5000 cells to IC50 for human CCRF-CEM cells; format: functional
[6] = test system: CCRF-CEM; assay: Cell cycle arrest in human CCRF-CEM cells assessed as accumulation at S phase at 0.055 to 0.44 uM after 6 to 72 hrs by propidium iodide staining-based flow cytometry; format: functional
[7] = test system: CCRF-CEM; assay: Cell cycle arrest in human CCRF-CEM cells assessed as accumulation at SubG1 phase at 0.055 to 0.44 uM after 72 hrs by propidium iodide staining-based flow cytometry; format: functional
[8] = test system: CCRF-CEM; assay: Cell cycle arrest in human CCRF-CEM cells assessed as accumulation at S phase at 0.01 uM after 6 hrs by propidium iodide staining-based flow cytometry; format: functional
[9] = test system: CCRF-CEM; assay: Induction of apoptosis in human CCRF-CEM cells at 0.01 uM after 72 hrs by propidium iodide staining-based flow cytometry; format: functional, cell-based
[10] = test system: CCRF-CEM; assay: Cell cycle arrest in human CCRF-CEM cells assessed as accumulation at G2/M phase after 24 hrs by propidium iodide staining-based flow cytometry; format: functional

Structure (SMILES) | IC50 [1] [µM] | Activity [2] | IC50 [3] [µM] | Activity [4] | Ratio IC50 [5] | Activity [6] | Activity [7] | Activity [8] | Activity [9] | Activity [10]
COc1cc(-c2c3c(n4ccc5cc(O)c(OC)cc5c24)C(=O)c2cc(O)c(OC)cc2-3)ccc1O | 0.113 | inactive | 0.172 | Active | 1.5 | inactive | Active |  |  | 
CC[C@@]1(O)C(=O)OCc2c1cc1n(c2=O)Cc2cc3ccccc3nc2-1 [CAMPTOTHECIN] | 0.003 |  | 0.011 |  | 3.7 |  |  | Active | Active | Dose-dependent effect
